The nature of this data set: method code SF-AS, from DOI: 10.1002/qsar.19900090404.
Turning to `COc1ccncn1`, the logP came to 0.54.

Molecule `NC(=O)c1ccncn1` gave a log partition coefficient (logP) of -0.68.

`COc1cccnn1` had a logP of 0.08.

In the case of `Fc1cnccn1`, the logP worked out at 0.29.

Regarding `Fc1ncccn1`, the logP came out at 0.02.

`NC(=O)c1cccnn1` gave a logP of -0.73.

As to `CN(C)c1cncnc1`, the lipophilicity (logP) came to 0.46.

The molecule `CC(=O)Nc1ccncn1` displayed a logP of 0.03.

Molecule `NC(=O)c1cnccn1` gave a logP of -0.5.

In turn, `CCc1ccccn1` came in with a logP of 1.6.

`COc1cncnc1` came in with a logP of 0.07.

Regarding `COC(=O)c1cccnn1`, the logP was -0.43.

For the molecule `COc1ncccn1`, the logP is 0.23.

Take `CN(C)c1ccncn1`: the logP was 0.58.

As for `NC(=O)c1cncnc1`, the logP was -0.92.

`Cc1ncccn1`: the logP was -0.05.

Regarding `CCOC(=O)c1cnccn1`, the logP is 0.28.

In the case of `CCOc1ccccn1`, the logP came out at 1.81.

As to `Cc1ccnnc1`, the logP was -0.32.

Take `COc1cnccn1`: the logP is 0.73.

`CCOC(=O)c1ncccn1` displayed a logP of -0.31.

Turning to `CCOc1ccnnc1`, the logP worked out at 0.2.

`Fc1cncnc1` showed a logP of -0.03.

Regarding `CCOC(=O)c1cncnc1`, the logP was 0.52.

`CCOc1cnccn1` registered a logP of 1.28.

Consider `NC(=O)c1ncccn1`, for which the logP is -1.2.

In turn, `Clc1cnccn1` registered a logP of 0.7.

`CN(C)c1ncccn1` had a logP of 1.07.

On to `Nc1ccnnc1`, for which the logP is -0.53.

On to `COC(=O)c1ccnnc1`, for which the logP is -0.27.

`CSc1ncccn1` returned a logP of 1.01.

The molecule `CC(=O)Nc1cncnc1` showed a logP of -0.22.

The molecule `NC(=O)c1ccnnc1` yielded a logP of -0.96.

`CCOc1cncnc1` returned a logP of 0.56.

For the molecule `CC(=O)Nc1cnccn1`, the logP was -0.03.

Take `Fc1ccccn1`: the logP amounted to 0.84.

With `CCOc1ncccn1`, the logP was 0.74.

Molecule `COC(=O)c1ccncn1` displayed a logP of -0.27.

The molecule `CC(=O)Nc1ccnnc1` came in with a logP of -0.41.

For `CC(=O)c1cnccn1`, the logP came to 0.2.

For the molecule `CCOc1cccnn1`, the logP came to 0.63.

As for `Cc1cccnn1`, the logP is -0.35.

Molecule `CCCOc1ccccn1` yielded a logP of 2.38.

`Cc1cncnc1`: the log partition coefficient (logP) was determined as 0.01.

In turn, `COC(=O)c1cncnc1` had a logP of 0.03.

For `CSc1cnccn1`, the logP stood at 1.17.

In turn, `N#Cc1ncccn1` showed a logP of -0.31.

In the case of `CCOc1ccncn1`, the logP worked out at 0.97.

`N#Cc1cnccn1` showed a logP of -0.01.

With `COC(=O)c1ncccn1`, the logP was -0.71.

Take `CCCOc1cnccn1`: the logP is 1.84.

The molecule `N#Cc1ccnnc1` returned a logP of -0.63.

The molecule `Clc1ncccn1` had a logP of 0.36.

The molecule `Clc1cccnn1` gave a logP of 0.1.

The molecule `Nc1ccncn1` yielded a logP of -0.25.

As to `CCOC(=O)c1ccnnc1`, the logP stood at 0.23.

For orientation: logP means the decadic logarithm of the partition coefficient of the neutral form, usually between octanol and water.
